# Data published in patent US20090053721A1, “VOLTAGE-GATED ION CHANNEL MUTANTS FOR USE IN IDENTIFYING ION CHANNEL MODULATING COMPOUNDS” (CARDIOME PHARMA CORP., priority 2007, published 2009).
# Counter-ions that a name gives are not always drawn.
# Legend:
# Format in all cases: cell-based
# [1] = target: T1, Kv1.5 A509G mutant channel (Homo sapiens, UniProt P22460, A509G); assay: Whole-cell patch-clamp block of mutant Kv1.5 current in HEK293 cells; details: 10 μM vernakalant
# T1 construct: subcloned as a fragment back into full-length Kv1.5; expressed in transfected cells; host or cells: HEK293, transient transfection
# T1 sequence (P22460 whole entry A509G, the tested form may be a part): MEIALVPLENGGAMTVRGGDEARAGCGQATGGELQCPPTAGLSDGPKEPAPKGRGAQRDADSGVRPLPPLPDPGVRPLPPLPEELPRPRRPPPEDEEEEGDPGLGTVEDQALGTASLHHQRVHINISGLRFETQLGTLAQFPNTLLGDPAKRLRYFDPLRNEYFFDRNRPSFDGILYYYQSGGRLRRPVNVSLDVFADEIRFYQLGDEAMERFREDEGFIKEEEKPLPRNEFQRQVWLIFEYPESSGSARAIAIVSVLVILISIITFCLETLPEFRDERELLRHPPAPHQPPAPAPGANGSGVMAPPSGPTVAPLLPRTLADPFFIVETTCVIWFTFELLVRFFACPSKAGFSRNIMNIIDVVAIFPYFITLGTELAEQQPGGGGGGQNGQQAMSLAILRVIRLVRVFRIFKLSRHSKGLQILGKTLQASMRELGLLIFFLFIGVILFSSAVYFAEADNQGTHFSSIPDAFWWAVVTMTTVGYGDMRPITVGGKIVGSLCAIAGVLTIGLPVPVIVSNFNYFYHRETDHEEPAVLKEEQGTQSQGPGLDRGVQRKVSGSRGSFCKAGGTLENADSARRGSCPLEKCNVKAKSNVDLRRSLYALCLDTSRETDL
# From the text: (§1) Stable lines of HEK293 cells expressing Kv1.5, or transient transfection of mutant Kv1.5 channels were used in all experiments. Primers to generate mutant channels were synthesized by Integrated DNA Technologies, Inc. (Coralville, Iowa, USA), and mutants were generated using the Stratagene Quikchange kit (Stratagene, Calif., USA). The presence of the mutation was confirmed by DNA sequencing, and because of the size of the WT Kv1.5 clone, only the sequenced region harboring the targeted nucleotides was subcloned as a fragment back into full-length Kv1.5. Transient transfections were performed with HEK 293 cells plated at 20-30% confluency on sterile coverslips in 25 mm Petri dishes one day prior to transfection. 0.1-4 μg of ion channel DNA was incubated with 1 μg of eGFP DNA (to enable detection of transfected cells) and 2 μl of lipofectamine 2000 (Invitrogen) in 100 μl of Opti-MEM. This was added to the cells for overnight incubation after washing the media with 900 μl of MEM with 10% FBS.
# (§2) The cells were grown in Minimal Essential Medium (MEM) at 37° C. in an air/5% CO2 incubator. Media contained 10% bovine serum and 0.5 mg/ml geneticin for stable lines. On the day before recording, stably-expressing cells were washed with MEM, treated with trypsin/EGTA for one minute and plated on 25 mm^2 coverslips. All cell culture supplies were obtained from Invitrogen (Mississauga, ON, Canada).
# (§3) Control bath solution contained (in mM): 5 KCl, 135 NaCl, 2.8 sodium acetate, 1 MgCl2, 10 HEPES and 1 CaCl2, adjusted to pH 7.4 with NaOH. Patch pipettes contained (in mM): 130 KCl, 5 EGTA, 1 MgCl2, 10 HEPES, 4 Na2ATP, and 0.1 GTP, adjusted to pH 7.2 with KOH. […]
# (§4) Coverslips with adherent cells plated on the surface were placed in a superfusion chamber (volume 300 μl) containing the control bath solution at 22° C. […] To assess drug block, half-log escalating concentrations of drug were added to the flowing bath solution and current traces were recorded with 400 ms depolarizing pulses to +60 mV at a frequency of 0.1 Hz. […]
# [2] = target: T2, Kv1.5 V481L mutant channel (Homo sapiens, UniProt P22460, V481L); assay: as above; details: 10 μM vernakalant
# T2 construct: subcloned as a fragment back into full-length Kv1.5; expressed in transfected cells; host or cells: HEK293, transient transfection
# T2 sequence (P22460 whole entry V481L, the tested form may be a part): as the sequence (P22460 whole entry A509G, the tested form may be a part) above, with V481L, G509A counted along it
# From the text: as §1, §2, §3, §4
# [3] = target: T3, Kv1.5 V512L mutant channel (Homo sapiens, UniProt P22460, V512L); assay: as above; details: 10 μM vernakalant
# T3 construct: subcloned as a fragment back into full-length Kv1.5; expressed in transfected cells; host or cells: HEK293, transient transfection
# T3 sequence (P22460 whole entry V512L, the tested form may be a part): as the sequence (P22460 whole entry A509G, the tested form may be a part) above, with G509A, V512L counted along it
# From the text: as §1, §2, §3, §4
# [4] = target: T4, Kv1.5 V505A mutant channel (Homo sapiens, UniProt P22460, V505A); assay: Voltage-dependence of block (Woodhull fit), V505A Kv1.5
# T4 construct: subcloned as a fragment back into full-length Kv1.5; expressed in transfected cells; host or cells: HEK293, transient transfection
# T4 sequence (P22460 whole entry V505A, the tested form may be a part): as the sequence (P22460 whole entry A509G, the tested form may be a part) above, with V505A, G509A counted along it
# Experimental: Coverslips with adherent cells plated on the surface were placed in a superfusion chamber (volume 300 μl) containing the control bath solution at 22° C. Whole-cell current recording and analysis were carried out using an Axopatch 200B amplifier and pClamp10 software (Axon Instruments, CA, USA). Patch electrodes were pulled from thin-walled borosilicate glass (World Precision Instruments, FL, USA) on a horizontal micropipette puller (Sutter Instruments, CA, USA). […] Analogue capacity compensation and 80% series resistance compensation were used during whole cell measurements. Membrane potentials were not corrected for junction potentials that arise between the pipette and bath solution. For Kv1.5 current recordings, a holding potential of −80 mV was used. Data were sampled at 10-20 kHz and filtered at 5 to 10 kHz. To assess drug block, half-log escalating concentrations of drug were added to the flowing bath solution and current traces were recorded with 400 ms depolarizing pulses to +60 mV at a frequency of 0.1 Hz.
# f=[D]/([D]+Kd*e^−δzFE/RT)
# where F, R, z and T have their usual meanings, δ represents the fractional electrical distance, i.e., the fraction of the transmembrane electrical field sensed by a single charge at the receptor site. […] The current amplitude (Idrug and Icontrol) was measured at the end of a 400 ms depolarization. […]
SMILES,Fractional Block ± SEM [1],Fractional Block ± SEM [2],Fractional Block ± SEM [3],change in electrical distance versus WT [4]
"COc1ccc(CCO[C@@H]2CCCC[C@H]2N2CC[C@@H](O)C2)cc1OC [Vernakalant, 3-Pyrrolidinol, 1-[(1R,2R)-2-[2-(3,4-dimethoxyphenyl)ethoxy]cyclohexyl]-,hydrochloride, (3R)]",0.33 ± 0.07,0.36 ± 0.03,0.56 ± 0.04,–
O=C(NCC1CCCCN1)c1cc(OCC(F)(F)F)ccc1OCC(F)(F)F (stereo not shown) [Flecainide],–,–,–,significant increase in distance
